Measurements as given in ChEMBL document CHEMBL1201862, “PubChem BioAssay data set” (2004).
Calls of active or inactive are those of the source.

Assays:
INS1 = experiment: INS-1E survival protection against cytokine death – cell-based, luminescence, retest, dose response (AID 449756); type: functional; conditions: Rattus norvegicus;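 also: cell death triggered by IL-1 beta plus TNF-alpha plus IFN-gamma mixture; protective hits raise ATP signal compared with cytokine alone wells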
[1] = biological target: T1, Microphthalmia-associated transcription factor (Homo sapiens, UniProt O75030); experiment: reducers of TRPM1 reporter luminescence, concentration series – cell-based, SK-MEL-5, cherry-picked, set 3, MITF inhibitor project, dose response (AID 493073); type: functional;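 also: SK-MEL-5 melanoma cells with luciferase driven by the MITF target TRPM1 promoter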
T1 sequence (O75030 whole entry): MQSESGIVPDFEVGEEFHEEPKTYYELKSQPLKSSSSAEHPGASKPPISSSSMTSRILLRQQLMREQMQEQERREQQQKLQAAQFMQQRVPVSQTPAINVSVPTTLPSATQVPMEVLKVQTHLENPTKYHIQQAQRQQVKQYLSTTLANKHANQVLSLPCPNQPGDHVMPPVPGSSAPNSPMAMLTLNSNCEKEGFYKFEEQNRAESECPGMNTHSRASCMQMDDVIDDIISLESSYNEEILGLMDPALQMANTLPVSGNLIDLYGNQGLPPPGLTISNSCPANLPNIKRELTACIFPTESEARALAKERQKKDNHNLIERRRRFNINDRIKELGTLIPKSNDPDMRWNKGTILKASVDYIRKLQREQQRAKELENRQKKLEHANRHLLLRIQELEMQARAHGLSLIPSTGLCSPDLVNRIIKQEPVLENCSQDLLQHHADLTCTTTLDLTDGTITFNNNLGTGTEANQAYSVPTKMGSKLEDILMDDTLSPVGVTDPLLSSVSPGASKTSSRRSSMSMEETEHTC

[2] = viability of uninfected HEp-2 cells – cell-based, HTS, cytotoxicity control for RSV inhibitor project, dose response (AID 2410); type: functional; conditions: human respiratory syncytial virus
Fatty acid synthase [3] = biological target: T2, Fatty acid synthase (Homo sapiens, UniProt P49327); experiment: inhibition of human FAS-TE enzyme activity – biochemical, kinetic fluorescence intensity, dose response (AID 624326); type: functional;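 also: rate of fluorescence rise from hydrolysis of a fluorogenic O-methyl fluorescein ester substrate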
T2 sequence (P49327 whole entry): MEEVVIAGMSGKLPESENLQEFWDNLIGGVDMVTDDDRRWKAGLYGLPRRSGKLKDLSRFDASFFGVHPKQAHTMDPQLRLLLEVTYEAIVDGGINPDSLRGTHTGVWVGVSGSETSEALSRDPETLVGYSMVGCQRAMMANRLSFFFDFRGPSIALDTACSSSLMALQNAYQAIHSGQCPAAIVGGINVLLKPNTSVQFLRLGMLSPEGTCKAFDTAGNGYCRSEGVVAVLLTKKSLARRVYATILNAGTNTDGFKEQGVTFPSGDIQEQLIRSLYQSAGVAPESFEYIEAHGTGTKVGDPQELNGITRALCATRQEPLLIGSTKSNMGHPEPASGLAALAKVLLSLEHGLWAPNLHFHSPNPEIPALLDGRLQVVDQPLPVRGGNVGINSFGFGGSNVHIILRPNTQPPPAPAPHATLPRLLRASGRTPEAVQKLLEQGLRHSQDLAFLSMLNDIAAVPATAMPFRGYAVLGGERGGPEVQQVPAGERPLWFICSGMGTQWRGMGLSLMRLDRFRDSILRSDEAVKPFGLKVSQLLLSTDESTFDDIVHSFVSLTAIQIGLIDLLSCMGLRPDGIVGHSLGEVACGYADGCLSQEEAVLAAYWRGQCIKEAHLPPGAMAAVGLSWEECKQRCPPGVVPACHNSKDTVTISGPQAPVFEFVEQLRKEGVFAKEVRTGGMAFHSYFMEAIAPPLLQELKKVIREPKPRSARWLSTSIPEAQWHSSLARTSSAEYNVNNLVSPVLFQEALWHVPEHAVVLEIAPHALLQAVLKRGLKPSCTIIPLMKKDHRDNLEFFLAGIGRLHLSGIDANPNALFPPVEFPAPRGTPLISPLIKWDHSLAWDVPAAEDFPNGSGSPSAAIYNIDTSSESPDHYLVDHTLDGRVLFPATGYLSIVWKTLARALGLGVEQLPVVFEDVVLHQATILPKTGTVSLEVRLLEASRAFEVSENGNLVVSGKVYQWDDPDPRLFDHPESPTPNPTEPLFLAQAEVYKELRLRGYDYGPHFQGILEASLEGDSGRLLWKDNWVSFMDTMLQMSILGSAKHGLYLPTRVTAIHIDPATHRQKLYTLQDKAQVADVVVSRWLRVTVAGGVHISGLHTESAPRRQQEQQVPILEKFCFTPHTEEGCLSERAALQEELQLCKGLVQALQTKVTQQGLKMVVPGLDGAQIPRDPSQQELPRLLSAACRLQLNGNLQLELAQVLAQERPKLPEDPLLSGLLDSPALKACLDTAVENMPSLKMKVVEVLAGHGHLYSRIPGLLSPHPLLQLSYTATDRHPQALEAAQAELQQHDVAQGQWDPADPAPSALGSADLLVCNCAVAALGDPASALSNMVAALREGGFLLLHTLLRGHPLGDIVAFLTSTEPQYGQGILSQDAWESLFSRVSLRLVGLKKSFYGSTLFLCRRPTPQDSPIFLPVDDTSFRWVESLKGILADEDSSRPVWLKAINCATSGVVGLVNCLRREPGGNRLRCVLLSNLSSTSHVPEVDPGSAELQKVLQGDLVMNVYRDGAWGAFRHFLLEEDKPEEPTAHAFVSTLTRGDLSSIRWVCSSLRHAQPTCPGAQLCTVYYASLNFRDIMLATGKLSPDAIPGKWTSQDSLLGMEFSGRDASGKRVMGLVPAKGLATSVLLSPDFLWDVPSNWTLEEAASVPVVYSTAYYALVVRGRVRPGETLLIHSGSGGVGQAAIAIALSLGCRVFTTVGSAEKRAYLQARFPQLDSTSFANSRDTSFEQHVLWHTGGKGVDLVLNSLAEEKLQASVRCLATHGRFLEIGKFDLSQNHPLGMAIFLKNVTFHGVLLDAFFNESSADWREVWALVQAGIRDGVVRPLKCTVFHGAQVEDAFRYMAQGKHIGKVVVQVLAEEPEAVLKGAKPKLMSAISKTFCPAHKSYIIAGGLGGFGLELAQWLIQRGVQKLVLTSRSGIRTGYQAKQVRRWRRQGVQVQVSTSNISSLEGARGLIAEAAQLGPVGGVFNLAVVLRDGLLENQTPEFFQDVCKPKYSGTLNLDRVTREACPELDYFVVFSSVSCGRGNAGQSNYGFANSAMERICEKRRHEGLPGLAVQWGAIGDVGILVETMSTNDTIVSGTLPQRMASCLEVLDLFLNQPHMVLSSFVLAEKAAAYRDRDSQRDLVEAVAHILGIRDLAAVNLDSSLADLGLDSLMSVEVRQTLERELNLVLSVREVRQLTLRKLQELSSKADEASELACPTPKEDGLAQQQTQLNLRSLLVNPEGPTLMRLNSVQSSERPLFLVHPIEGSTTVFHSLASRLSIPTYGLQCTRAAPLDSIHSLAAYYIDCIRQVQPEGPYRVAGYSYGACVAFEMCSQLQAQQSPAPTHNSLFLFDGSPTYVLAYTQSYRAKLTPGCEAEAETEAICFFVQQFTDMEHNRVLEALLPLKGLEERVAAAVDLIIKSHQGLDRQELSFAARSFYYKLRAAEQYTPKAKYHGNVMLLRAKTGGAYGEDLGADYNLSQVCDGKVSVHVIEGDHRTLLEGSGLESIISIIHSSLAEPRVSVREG

Fatty acid synthase [4] = biological target: T2, Fatty acid synthase; experiment: inhibition of human FAS-TE enzyme activity – biochemical, endpoint fluorescence intensity, uHTS hits, dose response (AID 624327); type: functional;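 also: fluorescence from hydrolysis of an O-methyl fluorescein acyl ester substrate by the enzyme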
[5] = biological target: DNA dC->dU-editing enzyme APOBEC-3G (Homo sapiens, UniProt Q9HC16); experiment: Dose Response confirmation of small molecule APOBEC3G DNA Deaminase Inhibitors via a fluorescence-based single-stranded DNA deaminase assay. [Related pubchem assays (depositor defined):AID493012, AID493028]; type: functional
Chain of DNA dC->dU-editing enzyme APOBEC-3G (Q9HC16 whole entry): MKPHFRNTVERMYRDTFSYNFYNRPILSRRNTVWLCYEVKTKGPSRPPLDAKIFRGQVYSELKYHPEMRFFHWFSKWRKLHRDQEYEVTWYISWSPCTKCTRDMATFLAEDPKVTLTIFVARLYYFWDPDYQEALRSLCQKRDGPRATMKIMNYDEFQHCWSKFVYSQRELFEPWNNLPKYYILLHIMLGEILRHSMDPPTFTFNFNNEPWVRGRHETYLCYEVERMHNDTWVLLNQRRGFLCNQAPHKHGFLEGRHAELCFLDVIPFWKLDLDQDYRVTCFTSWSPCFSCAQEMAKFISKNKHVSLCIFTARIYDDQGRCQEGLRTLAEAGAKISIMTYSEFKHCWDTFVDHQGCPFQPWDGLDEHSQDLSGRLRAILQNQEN

[6] = biological target: Glucose-6-phosphate 1-dehydrogenase (Homo sapiens, UniProt P11413); experiment: inhibition of Homo sapiens G6PD, dose series – biochemical, fluorescence, selectivity assay for P. falciparum G6PD inhibitor project, dose response (AID 504792); type: functional
Chain of Glucose-6-phosphate 1-dehydrogenase (P11413 whole entry): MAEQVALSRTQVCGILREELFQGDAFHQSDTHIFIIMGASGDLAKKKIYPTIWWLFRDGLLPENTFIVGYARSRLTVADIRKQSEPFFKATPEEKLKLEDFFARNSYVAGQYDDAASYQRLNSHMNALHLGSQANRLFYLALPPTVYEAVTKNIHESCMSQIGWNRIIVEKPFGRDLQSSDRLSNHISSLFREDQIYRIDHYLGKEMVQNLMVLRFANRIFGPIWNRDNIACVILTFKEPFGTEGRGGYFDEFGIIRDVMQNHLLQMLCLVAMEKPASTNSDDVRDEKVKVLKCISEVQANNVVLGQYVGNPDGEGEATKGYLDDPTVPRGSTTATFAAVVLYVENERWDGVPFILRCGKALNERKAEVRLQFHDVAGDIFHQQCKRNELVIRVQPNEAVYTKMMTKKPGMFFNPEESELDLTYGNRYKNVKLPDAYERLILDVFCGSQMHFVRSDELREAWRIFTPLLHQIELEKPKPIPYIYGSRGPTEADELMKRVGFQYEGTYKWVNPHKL

cells [7] = type: functional
cells [8] = type: functional, cell-based
[9] = Vero E6 cell cytotoxicity, dose response, cytotoxicity control for non-replicating M. tuberculosis project, secondary assay (AID 492998); type: functional, VeroE6; conditions: Vero C1008
cells [10] = type: functional, cell-based; remark: listed apart in the source
[11] = THP-1 cell cytotoxicity, dose response, cytotoxicity control for non-replicating M. tuberculosis project (AID 489025); type: functional
[12] = viability of PTEN-deleted HCT116 cells – cell-based, HCT116 PTEN knockout, dose response (AID 1047); type: functional;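 also: HCT116 colon tumor cells with PTEN knocked out; cells exposed to compound for 60 hours before readout; potency for loss of cell viability measured by luminescence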
[13] = biological target: T3, Replicative DNA helicase DnaB (Mycobacterium tuberculosis, UniProt P9WMR3); experiment: DnaB intein splicing inhibitors, dose response, biochemical, cell-free fluorescence (AID 449749); type: functional
T3 sequence (P9WMR3 whole entry): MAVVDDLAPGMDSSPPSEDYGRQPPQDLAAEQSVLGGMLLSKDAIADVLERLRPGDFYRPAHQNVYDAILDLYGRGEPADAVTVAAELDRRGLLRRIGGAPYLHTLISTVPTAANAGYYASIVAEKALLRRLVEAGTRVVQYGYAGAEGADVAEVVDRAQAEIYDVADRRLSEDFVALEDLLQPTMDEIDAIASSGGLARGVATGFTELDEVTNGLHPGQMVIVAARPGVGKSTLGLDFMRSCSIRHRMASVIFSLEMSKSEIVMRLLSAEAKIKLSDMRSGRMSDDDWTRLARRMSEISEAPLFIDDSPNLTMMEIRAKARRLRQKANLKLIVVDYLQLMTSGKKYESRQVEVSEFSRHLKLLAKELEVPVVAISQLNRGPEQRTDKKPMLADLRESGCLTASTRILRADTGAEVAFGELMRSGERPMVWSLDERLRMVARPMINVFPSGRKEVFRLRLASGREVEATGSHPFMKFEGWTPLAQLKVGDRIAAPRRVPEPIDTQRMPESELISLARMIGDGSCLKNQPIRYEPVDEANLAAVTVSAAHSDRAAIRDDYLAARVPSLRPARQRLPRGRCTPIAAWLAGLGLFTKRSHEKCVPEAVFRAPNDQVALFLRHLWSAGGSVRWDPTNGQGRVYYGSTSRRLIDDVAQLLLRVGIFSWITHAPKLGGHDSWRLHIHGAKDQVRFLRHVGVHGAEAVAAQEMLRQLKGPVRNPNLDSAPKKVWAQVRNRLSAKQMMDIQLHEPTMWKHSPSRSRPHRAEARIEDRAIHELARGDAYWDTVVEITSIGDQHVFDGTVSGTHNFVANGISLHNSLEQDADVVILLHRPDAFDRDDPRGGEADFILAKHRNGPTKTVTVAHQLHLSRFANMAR

[14] = NIH-3T3 fibroblast cytotoxicity, dose response, cytotoxicity control, cell-based, fluorescence, Alamar Blue, secondary assay (AID 2327); type: functional;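 also: NIH-3T3 mouse fibroblasts cultured with fluconazole at 8 µg/mL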
[15] = Trypanosoma cruzi growth suppression in host cells – NIH3T3 host cells, beta-gal luminescence, confirmation (AID 2044); type: functional, cell-based;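 also: intracellular parasites grown in NIH/3T3 mouse fibroblasts as host cells; luminescent beta-galactosidase reporter signal from transgenic T. cruzi replicating inside host cells; inhibitors lower the luminescence signal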
[16] = NIH3T3 cell viability loss – ATP luminescence, mouse fibroblasts, counter-screen, dose response (AID 2010); type: functional, cell-based;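 also: cells exposed to compound for about 90 hours before reading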
Nonstructural protein 1 = Nonstructural protein 1 (Influenza A virus, UniProt Q194T2); type: functional, Influenza A virus (A/California/07/2009(H1N1))
Chain of Nonstructural protein 1 (Q194T2 whole entry): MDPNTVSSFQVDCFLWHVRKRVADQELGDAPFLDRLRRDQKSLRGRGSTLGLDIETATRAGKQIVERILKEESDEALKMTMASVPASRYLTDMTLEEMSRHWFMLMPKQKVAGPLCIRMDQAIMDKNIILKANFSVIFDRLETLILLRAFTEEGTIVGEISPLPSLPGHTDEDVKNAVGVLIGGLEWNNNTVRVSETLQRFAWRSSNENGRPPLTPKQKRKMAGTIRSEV

[17] = viability of HCT116 lacking mutant beta-catenin – cell-based, human colon tumor, dose response (AID 1045); type: functional;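 also: HCT116 colon tumor cells with beta catenin knocked out; cells exposed to compound for 60 hours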
[18] = luciferase reporter signal suppression in cells – H4 neuroglioma cells, luminescence, dose response (AID 1990); type: functional, cell-based
[19] = fluconazole-exposed Candida albicans growth modulators – fluorescence, retest, confirmation (AID 2467); type: functional, cell-based
[20] = alpha-synuclein stem-loop luciferase translation blockers – H4 neuroglioma cells, luminescence, confirmation (AID 1988); type: functional, cell-based
[21] = Luminescence Cell-Based Dose Response HTS to Identify Inhibitors of 5'UTR Stem-Loop Driven Prion Protein mRNA Translation in H4 Neuroglioblastoma Cells. [Related pubchem assays: 1827 (Project Summary), 1813 (Primary HTS)]; type: functional
Protein RecA = biological target: T4, Protein RecA (Mycobacterium tuberculosis, UniProt P9WHJ3); experiment: Fluorescence Cell-Free Homogeneous Dose Retest to Identify Inhibitors of RecA-Intein Splicing Activity. [Related pubchem assays (depositor defined):AID2097, AID2223, AID489010, AID492950]; type: functional
T4 sequence (P9WHJ3 whole entry): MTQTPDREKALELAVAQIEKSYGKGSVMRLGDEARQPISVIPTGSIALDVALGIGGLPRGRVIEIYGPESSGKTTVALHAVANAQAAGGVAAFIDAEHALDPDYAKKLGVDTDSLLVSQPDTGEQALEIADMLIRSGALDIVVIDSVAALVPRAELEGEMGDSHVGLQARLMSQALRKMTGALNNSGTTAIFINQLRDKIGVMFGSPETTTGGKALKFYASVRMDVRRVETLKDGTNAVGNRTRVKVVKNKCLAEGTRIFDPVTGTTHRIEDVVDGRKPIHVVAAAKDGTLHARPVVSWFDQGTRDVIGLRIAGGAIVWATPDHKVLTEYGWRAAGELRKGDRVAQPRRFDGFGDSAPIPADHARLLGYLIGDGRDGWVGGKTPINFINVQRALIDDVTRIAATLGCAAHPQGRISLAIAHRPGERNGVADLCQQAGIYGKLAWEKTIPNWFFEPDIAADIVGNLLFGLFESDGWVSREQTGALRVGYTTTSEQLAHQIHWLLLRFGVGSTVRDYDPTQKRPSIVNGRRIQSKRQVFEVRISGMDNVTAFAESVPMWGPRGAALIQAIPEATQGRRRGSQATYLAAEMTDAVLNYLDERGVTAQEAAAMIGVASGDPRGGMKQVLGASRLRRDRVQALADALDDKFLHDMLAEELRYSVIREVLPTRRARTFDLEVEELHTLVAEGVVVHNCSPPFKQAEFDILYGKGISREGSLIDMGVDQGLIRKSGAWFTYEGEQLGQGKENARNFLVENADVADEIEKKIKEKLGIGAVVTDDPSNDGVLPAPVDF

[22] = biological target: T5, Corticotropin-releasing factor receptor 2/Corticotropin-releasing factor-binding protein (Homo sapiens, UniProt P24387+Q13324); experiment: activators of CRF receptor 2 with binding protein – uHTS hits, confirmation (AID 602473); type: functional; conditions: read-out: EC50_Mean
T5 sequence (Q13324 whole entry): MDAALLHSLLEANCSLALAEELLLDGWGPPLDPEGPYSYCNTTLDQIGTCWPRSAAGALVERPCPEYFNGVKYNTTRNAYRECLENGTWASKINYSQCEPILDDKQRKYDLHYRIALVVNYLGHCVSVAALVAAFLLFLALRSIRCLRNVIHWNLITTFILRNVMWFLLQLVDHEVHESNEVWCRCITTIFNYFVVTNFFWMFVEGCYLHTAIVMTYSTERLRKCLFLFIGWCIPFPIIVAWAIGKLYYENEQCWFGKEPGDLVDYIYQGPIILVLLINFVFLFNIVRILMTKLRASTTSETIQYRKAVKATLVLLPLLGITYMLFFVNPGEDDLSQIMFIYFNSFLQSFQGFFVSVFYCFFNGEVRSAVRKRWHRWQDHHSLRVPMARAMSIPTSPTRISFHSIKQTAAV
T5 sequence (P24387 whole entry): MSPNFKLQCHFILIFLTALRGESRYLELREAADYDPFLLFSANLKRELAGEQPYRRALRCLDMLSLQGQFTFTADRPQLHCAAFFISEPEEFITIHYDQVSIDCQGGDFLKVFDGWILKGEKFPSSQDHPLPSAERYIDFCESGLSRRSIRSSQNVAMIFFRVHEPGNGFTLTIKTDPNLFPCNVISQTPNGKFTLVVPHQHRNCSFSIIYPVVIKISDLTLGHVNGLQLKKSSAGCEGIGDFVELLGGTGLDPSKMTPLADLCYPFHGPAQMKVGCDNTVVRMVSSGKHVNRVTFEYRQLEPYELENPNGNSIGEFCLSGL

[23] = biological target: T5, Corticotropin-releasing factor receptor 2/Corticotropin-releasing factor-binding protein; experiment: Dose Response confirmation of uHTS hits for small molecule antagonists of the CRF-binding protein and CRF-R2 receptor complex.; type: functional; conditions: read-out: IC50_Mean
[24] = blockers of HIV-1 ZM109 envelope-driven cell-cell fusion – HeLa effector, CEM target cells, luciferase, cherry-pick, dose response (AID 652058); type: functional, cell-based;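 also: luciferase signal from HIV-1 Env mediated cell-cell fusion of effector and target cells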
SN12K1 = experiment: cells; type: functional; conditions: Homo sapiens
Paired box protein Pax-8 = Paired box protein Pax-8 (Homo sapiens, UniProt Q06710); experiment: PAX8 transcriptional activity inhibition in RMG-I – RMG-I cells, luciferase, cherry-pick, dose response (AID 687027); type: functional, cell-based;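 also: luciferase reporter driven by Pax8 target thyroperoxidase promoter measured by SteadyGlo luminescence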
Chain of Paired box protein Pax-8 (Q06710 whole entry): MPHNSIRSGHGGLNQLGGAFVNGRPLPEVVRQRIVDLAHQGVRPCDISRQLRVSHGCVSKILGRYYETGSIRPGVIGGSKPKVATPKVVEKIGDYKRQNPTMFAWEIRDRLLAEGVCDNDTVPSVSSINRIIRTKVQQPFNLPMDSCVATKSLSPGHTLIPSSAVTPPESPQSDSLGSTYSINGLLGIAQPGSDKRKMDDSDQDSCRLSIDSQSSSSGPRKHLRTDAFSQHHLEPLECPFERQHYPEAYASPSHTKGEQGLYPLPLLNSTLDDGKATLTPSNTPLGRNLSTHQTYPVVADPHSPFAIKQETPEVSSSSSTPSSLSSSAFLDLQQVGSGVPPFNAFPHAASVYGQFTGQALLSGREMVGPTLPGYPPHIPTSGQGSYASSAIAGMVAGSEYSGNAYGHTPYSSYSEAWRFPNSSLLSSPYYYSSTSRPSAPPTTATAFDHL

COc1ccc(Cn2c(-c3ccc(C)cc3)c[n+]3ccccc23)cc1
AC50 (INS1): 4.52 µM (active) | AC50 [1]: 2.89 µM (active)

C=CCSC(=S)NC1CCS(=O)(=O)C1 (configuration not stated)
CC50 [2]: 24.6 µM (active) | AC50 [1]: 20.7 µM (active)

Cc1ccc(-c2c(C(=O)N(C)Cc3ccccc3)oc(=O)c3ccccc23)cc1
IC50 (Fatty acid synthase [3]): 12.3 µM (active) | IC50 (Fatty acid synthase [4]): 11.6 µM (active)

COC(=O)CCC(=O)Nc1sc(Cc2ccccc2)c(C)c1C(N)=O
IC50 [5]: 31.1 µM (active) | IC50 [6]: > 80 µM (inactive) | IC50 (cells [7]): 49 µM (active)

CCOc1ccccc1N(CC)C(=O)c1ccc2c(=O)n3c(nc2c1)CCCCC3
IC50 (Fatty acid synthase [3]): 3.45 µM (active) | IC50 (Fatty acid synthase [4]): 3.88 µM (active)

COc1cccc2sc(N3CCN(C(=O)c4ccc([N+](=O)[O-])o4)CC3)nc12
EC50 (cells [8]): > 350 µM (not active) | CC50 [9]: 18.9 µM (active) | EC50 (cells [10]): > 350 µM (not active) | CC50 [11]: 36.5 µM (active) | IC50 (cells [7]): < 0.1 µM (active) | AC50 [1]: 7.03 µM (active)

CC(=O)N(Cc1ccc(F)cc1)C1=C(NCc2ccccc2)C(=O)c2ccccc2C1=O
EC50 [12]: 0.54 µM (active) | AC50 [13]: 5.17 µM (active) | EC50 [14]: 4.92 µM (inconclusive) | EC50 [15]: 0.317 µM (active) | EC50 [16]: 7.47 µM (active) | IC50 (Nonstructural protein 1): 35.3 µM (active) | EC50 [17]: 0.444 µM (active) | EC50 [18]: 8.34 µM (active) | EC50 [19]: 0.708 µM (active) | EC50 [20]: 8.2 µM (active) | EC50 [21]: > 120 µM (not active) | EC50 (Protein RecA): 0.776 µM (active)

CC(C)c1nnc(NC(=O)c2cc3ccccc3o2)s1
IC50 [6]: > 80 µM (inactive)

C/C=C/C=C/C(=O)OC(C)C(=O)Nc1cc([N+](=O)[O-])ccc1OC (configuration not stated)
IC50 (Fatty acid synthase [3]): 4.79 µM (active) | EC50 [22]: > 53 µM (inactive) | IC50 [23]: > 47.1 µM (inactive) | IC50 (Fatty acid synthase [4]): 4.02 µM (active)

C[C@@H]1CN([C@@H](C)CO)S(=O)(=O)c2ccc(-c3ccccc3)cc2O[C@H]1CN(C)S(C)(=O)=O
AC50 [24]: 44 µM (active)

Nc1ncnc2c1ncn2C1C(O)C=C(CO)C1O (configuration not stated)
GI50 (SN12K1): > 625 µM (inactive)

COC(=O)[C@H](C)NC(=O)c1cc2c3ccccc3nc-2c[nH]1
IC50 [5]: 25.6 µM (active) | IC50 [6]: > 80 µM (inactive)

O=C(COc1ccc(S(=O)(=O)N2CCCCC2)cc1)Nc1ccccc1F
IC50 (Fatty acid synthase [3]): 17.2 µM (active) | IC50 (Fatty acid synthase [4]): 16 µM (active)

O=C(NN=Cc1c(O)ccc2ccccc12)c1ccncc1
IC50 (Nonstructural protein 1): 11.9 µM (active) | AC50 (Paired box protein Pax-8): 1.17 µM (active)
